Data published in patent US12048691B2 (SPERO THERAPEUTICS, INC., priority 2020, dated 2024).
In brackets after ≈: the same amount, converted by molar mass. Read-outs that look alike come from different tables or passages of the source.

Tests used:
Type in all cases: cell-based
P. mirabilis = assay: Broth microdilution against US UTI pathogens 2019-2020; conditions: P. mirabilis (235), cefuroxime: oral breakpoint
Experimental: (§1) This study assessed the in vitro activity of tebipenem and comparator agents against Enterobacterales (ENT) responsible for UTIs in the US during 2019-2020. A total of 3,576 ENT recovered from urine samples during the 2019-2020 STEWARD Surveillance Program were included in the study. Isolates were collected from medical centers in all 9 US Census Regions and were centrally tested for susceptibility by reference broth microdilution method. MIC interpretation was performed based on CLSI criteria.

Enterobacterales (ENT) = assay: as above
Experimental: as §1

E. coli = assay: as above; conditions: E. coli (2,339); cefuroxime: oral breakpoint
Experimental: as §1

K. pneumoniae = assay: as above; conditions: K. pneumoniae (511)
Experimental: as §1

[1] = system: Enterobacterales overproducing AmpC; assay: Broth microdilution susceptibility of isolates overexpressing AmpC
Experimental: Frozen-form broth microdilution panels were manufactured by JMI Laboratories and contained cation-adjusted Mueller-Hinton broth. Quality assurance was performed by sterility checks, colony counts, and testing CLSI recommended quality control reference strains.

In the case of `C[C@@H](O)[C@H]1C(=O)N2C(C(=O)O)=C(S[C@@H]3CN[C@H](C(=O)Nc4cccc(C(=O)O)c4)C3)[C@H](C)[C@H]12` [Ertapenem, ertapenem], the “% susceptible; CLSI” value (P. mirabilis) is reported as “(100.0) %”, the “% susceptible; CLSI” value (P. mirabilis; listed as ERT) is reported as 100.0% and the MIC50 (Enterobacterales (ENT)) is reported as ≤ 8 µg/mL. The MIC90 (Enterobacterales (ENT); All (3,567)) was 30 µg/mL (≈ 63.1 µM), the “% susceptible; CLSI” value (Enterobacterales (ENT); All (3,567), cefuroxime: oral breakpoint) was “(98.5) %” and the MIC90 (Enterobacterales (ENT); against ENT, EC, and KPN) was 0.03 µg/mL (≈ 0.0631 µM). The “% susceptible; CLSI” value (E. coli) was “(99.6) %”, the “% susceptible; CLSI” value (K. pneumoniae; cefuroxime: oral breakpoint) was “(96.3) %” and the MIC50 (K. pneumoniae; Klebsiella pneumoniae, read-out: MIC50) was ≤ 8 µg/mL. For the same compound, the MIC50 [1] was 0.12 µg/mL (≈ 0.252 µM), the MIC90 [1] was 2 µg/mL (≈ 4.21 µM) and the “CLSI %1” value ([1]; Enterobacterales (36)) was 8.3%. The “CLSI % R” value ([1]; Enterobacterales (36)) was 11.1%, the “CLSI % S” value ([1]; Enterobacterales (36)) was 80.6% and the MIC50 ([1]; Enterobacterales (36)) was 0.12 μ/ml. For the same compound, the MIC90 ([1]; Enterobacterales (36)) was 2 μ/ml.
